Several values for one entry are separate records, joined by “and”; a condition that tells them apart may be missing. Equal entries are not always repeated.
B1: A: LIN28A-11R (LD Biopharma HTF 0046) 4 ug/ml (protein, UniProt Q9H9Z2 2-209, looked up)
Protein lin-28 homolog A: GSVSNQQFAGGCAKAAEEAPEEAPEDAARAADEPQLLHGAGICKWFNVRMGFGFLSMTARAGVALDPPVDVFVHQSKLHMEGFRSLKEGEAVEFTFKKSAKGLESIRVTGPGGVFCIGSERRPKGKSMQKRRSKGDRCYNCGGLDHHAKECKLPPQPKKCHFCQSISHMVASCPLKAQQGPSAQGKPTYFREEEEEIHSPTLLPEAQN
modifications: C-terminal 11-arginine cell-penetrating tag
notes: LIN28A-11R (LD Biopharma HTF 0046) 4 ug/ml

Key:
4D20.8 and MSCs = test: TUNEL apoptosis assay, embryonic vs adult mesenchymal cells; assay type: cell-based, human; conditions: 3.7 nM; 24 hours; 4D20.8 vs MSC; FIG. 7
Experimental: (§1) Optimized conditions were identified for distinguishing the increased apoptosis anticipated by cells with a pre-fetal pattern of gene expression. Embryonic and adult-derived mesenchymal (4D20.8 and MSCs respectively) and vascular endothelial cells (30MV2-6 and HAEC respectively) were treated with diverse stimuli for apoptosis including: Camptothecin (CPT), H2O2, and Thapsigargin (TG) at two concentrations each as well as a vehicle control. The compounds were applied for 24 hours prior to analysis. After treatment apoptosis was monitored via TUNEL staining using the In Situ Cell Death Detection kit (Roche, cat #12156792910) following the manufacturer's instructions. […] This assay is therefore useful in determining the effectiveness of iTR factors in inducing senolysis in aged cells and in CSCs.

30MV2-6 and HAEC = test: TUNEL apoptosis assay, embryonic vs adult vascular endothelial cells; assay type: cell-based, human; conditions: 3.7 nM; 24 hours; 30MV2-6 vs HAEC; FIG. 7
Experimental: as §1

BJ-TERT fibroblast cells = test: Scratch assay of tissue regeneration and cell proliferation; assay type: cell-based; conditions: 2 weeks treatment; 800 um scratch; % filling 16 hours later
Experimental: BJ-TERT fibroblast cells at passage 8 were seeded at 50,000 cells/well on 6 well plates in DMEM 10% FBS. The following day the cells were treated with various cocktails listed below for 2 weeks:
Following treatment, at confluence an 800 um scratch was made and % filling evaluated 16 hours later. Filling of scratch of treated cells were compared to that of control.

[1] = tested on: Xgene fibroblasts (human foreskin); test: Cell number of early and late passage fibroblasts (senolytic activity); assay type: cell-based; conditions: for cell number, Avg / cell number, single wells: 20,000 cells/well seeded; for cell number, Avg / cell number, single wells / cell number compared to controls, in words: 1 week; for Fold change of cell number: relative to control (growth medium alone)
Experimental: Xgene fibroblasts (human foreskin, obtained from Xgene, Sausilito Calif.) were seeded at early (P9) and late (P33) passage at 20,000 cells/well (0.1% gelatin coated 24 well plate) in growth medium (DMEM+10% FBS). The following day they were refed medium with the additive listed below for 1 week and fed every other day and then counted.

COX7A1 = test: qPCR of COX7A1 after valproic acid treatment; assay type: cell-based; conditions: 28 days, adult derived dermal fibroblasts
Experimental: Adult derived dermal fibroblasts were cultured in DMEM 10% FBS in wells of 6 well plates and treated with valproic acid at 0.5 mM and 1 mM for 28 days. On day 28 the media was removed, the cells were washed with PBS, and then lysed using RLT with beta-mercaptoethanol (Qiagen Cat 79216). Total RNA was extracted using Qiagen RNeasy mini-kits (Qiagen Cat 74106) following manufacturers instructions. Then cDNA was prepared using ThermoFisher superscript III (Cat. 18080044). qPCR was run on an Applied Biosystems 7500 Real-Time PCR System employing SDSv2.3 software to evaluate the expression of COX7A1 (which is a definitive indicator of adult phenotype) relative to GAPDH of the treated line relative to the untreated line.

Molecule	apoptosis (TUNEL), embryonic mesenchymal cells compared to adult counterparts (4D20.8 and MSCs)	apoptosis (TUNEL), embryonic endothelial cells compared to adult counterparts (30MV2-6 and HAEC)	Fold Increase Over Control (filling of scratch) (BJ-TERT fibroblast cells)	cell number, Avg ([1]; early passage P9)	cell number, single wells ([1]; early passage P9, listed as Cond. B)	Fold change of cell number ([1]; early passage P9)	cell number compared to controls, in words ([1]; late passage (P33))	cell number, Avg ([1]; late passage P33)	cell number, single wells ([1]; late passage P33, listed as Cond. B)	Fold change of cell number ([1]; late passage P33)	COX7A1 expression (normalized to GAPDH) compared to control (untreated) (COX7A1; 0.5 mM)	COX7A1 expression (normalized to GAPDH) compared to control (untreated) (COX7A1; 1 mM)	cell number compared to controls, in words ([1]; early passage (P9))	cell number, single wells ([1]; early passage P9, listed as Cond A)	cell number compared to controls, in words ([1]; late passage (P33), listed as condition A)	cell number, single wells ([1]; late passage P33, listed as Cond A)
C/C=C(/C)C(=O)O[C@H]1C(C)=C2[C@H]([C@@H]1OC(=O)CCCCCCC)[C@@](C)(OC(C)=O)C[C@H](OC(=O)CCC)[C@@]1(O)[C@H]2OC(=O)[C@@]1(C)O [Thapsigargin]	robust statistically-significant increase in apoptosis	robust statistically-significant increase in apoptosis	–	–	–	–	–	–	–	–	–	–	–	–	–	–
CCCC(CCC)C(=O)O [valproic acid]	–	–	1.4	226,000	228,000 and 224,000	1.2	differential effect on late passage cells	67,000	62,000 and 72,000	1.0	negligible effect	0.001	–	–	–	–
B1	–	–	1.2	254,000	–	1.3	differential effect on late passage cells	48,000	–	0.8	–	–	heightened cell number	220,000 and 288,000	reduced cell number	46,000 and 50,000

From patent US20210180013A1, “IMPROVED METHODS FOR INDUCING TISSUE REGENERATION AND SENOLYSIS IN MAMMALIAN CELLS” (AgeX Therapeutics, Inc., priority 2018, published 2021)
